According to PMC9698716, “From Serendipity to Rational Identification of the 5,6,7,8-Tetrahydrobenzo[4,5]thieno[2,3-d]pyrimidin-4(3H)-one Core as a New Chemotype of AKT1 Inhibitors for Acute Myeloid Leukemia” (Pharmaceutics, 2022):

Legend:
[1] = test system: IMS-M2; experiment: Cell growth, viable cell count by trypan blue exclusion; format: cell-based, human; settings: IMS-M2, 5 µM, at 48 and 72 h
[2] = test system: normal donor CD34+ hematopoietic stem/progenitor cells (HSPC); experiment: Colony forming unit (CFU) assay; format: cell-based, human; settings: 14 days
From the text: The human AML cell lines, OCI-AML3 (carrying the NPM1 gene mutation A and the DNMT3A^R882C mutation), IMS-M2 (carrying the NPM1 gene mutation A), OCI-AML2 (with the wild-type NPM1 and DNMT3A^R635W mutation), and SKM-1 and MOLM-13 (with the wild-type NPM1) were previously reported. The cell lines were purchased from the Deutsche Sammelung von Mikroorganismen und Zellkulturen (DSMZ) (Braunschweig, Germany) cell bank and maintained according to the vendors’ instructions. Briefly, cultured cells were split every 3 days and maintained in an exponential growth phase. The cell lines were tested for mycoplasma using the Universal Mycoplasma Detection Kit (ATCC). The OCI-AML3 were grown in α-MEM supplemented with 20% fetal bovine serum, 100 U/mL penicillin, and 100 μg/mL streptomycin (P/S), and all other cell lines were cultured in RPMI and supplemented with a 10–20% fetal bovine serum and 100 U/mL penicillin and 100 μg/mL streptomycin. The cells were kept at 37 °C in a 5% CO2 incubator. Prior to screening, the appropriate cell concentration for all cell lines was determined. […] The metabolic cell activity was measured by using the CellTiter Blue proliferation agent (Roche) as described in the manufacturer’s procedure. […] The fluorescence intensity was measured using the automated Tecan plate reader (Tecan Group Ltd., Männedorf, Switzerland) at an excitation/emission wavelength of 531/572 nm. The fluorescence readouts were reported as relative fluorescence units (RFU) and read on a luminescence plate reader (Infinite 200 Pro, Tecan, CA, USA). […] The results are expressed as mean ± standard error of the mean (SEM). […]
For the CFU assay, 500 CD34+ human cells were plated in a MethoCult™ enriched medium (see Table S4) on a 6-well plate (untreated cells versus T126 at 1, 2.5, and 5 µM, each condition in triplicate). The plates were then incubated for 14 days at 37 °C (5% CO2), and the images were captured and the colonies counted by STEMvision™. […]

colony forming ability of human CD34+ HSPC ([2]; 1 µM): did not inhibit | colony forming ability of human CD34+ HSPC ([2]; 2.5 µM): did not inhibit | decrease of clonogenic efficiency compared to untreated control ([2]; 5 µM): about 20%
Structure (SMILES): O=c1[nH]c(-c2ccc(O)c(O)c2)nc2sc3c(c12)CCCC3 [T126]
cell growth inhibition [1]: significant cell growth inhibition
